{
  "source": "patent US20050070496A1",
  "about": "“Semi-solid formulations for the oral administration of taxoids” (Aventis Pharma S. A., priority 2003, published 2005)",
  "key": {"[1]": {"experiment": "Solubility of taxoid of formula Ib in liquid excipients", "type": "physicochemical", "excerpt": "After a first selection of proper excipients (in terms of safety and developability), the solubility of taxoids in the excipient was the first screening step for the choice of the excipient and the selection of the prototypes. Then, the prototypes (liquid or semi-solid) were manufactured, and characterized in terms of in vitro behavior in simulated GI media and chemical stability. Finally, the physical properties and stability of the semi-solid prototypes have been investigated."}, "[2]": {"experiment": "Solubility in semi-solid excipients (at the melted state) and solid excipients", "excerpt": "The solubility of taxoid of formula Ib at room temperature has been determined by X ray diffraction."}},
  "note": "Marks after values point to notes of the source that are not given here.",
  "data": [
    {"smiles": "CC(=O)O[C@H]1C(=O)[C@]23C[C@H]2C[C@H]2OC[C@@]2(OC(C)=O)[C@H]3[C@H](OC(=O)c2ccccc2)[C@]2(O)C[C@H](OC(=O)[C@H](O)[C@@H](NC(=O)OC(C)(C)C)c3ccccc3)C(C)=C1C2(C)C", "note": "[taxoid of formula Ib]", "values": [
      {"measurement": "Solubility", "setting": "[1]; in Capryol 90 (Polyethylene glycol monocaprylate)", "value": 281, "unit": "mg/g"},
      {"measurement": "Solubility", "setting": "[1]; in Cremophor EL (POE hydrogenated castor oil)", "value": 94, "unit": "mg/g"},
      {"measurement": "Solubility", "setting": "[1]; in Crossential O94 (Oleic acid)", "value": 37, "unit": "mg/g"},
      {"measurement": "Solubility", "setting": "[1]; in Edenor C8 98-100 (Caprylic acid)", "value": 138, "unit": "mg/g"},
      {"measurement": "Solubility", "setting": "[1]; in Ethanol", "value": 250, "unit": "mg/g"},
      {"measurement": "Solubility", "setting": "[1]; in HPβ cyclodextrin", "value": 0.28, "unit": "mg/g"},
      {"measurement": "Solubility", "setting": "[1]; in Labrafil M1944 CS (oleyl macrogol-6-glycerides)", "value": 52, "unit": "mg/g"},
      {"measurement": "Solubility", "setting": "[1]; in Labrasol (Caprylocaproyl macrogol-8 glycerides)", "value": 244, "unit": "mg/g"},
      {"measurement": "Solubility", "setting": "[1]; in Lauroglycol 129 (PG monolaurate)", "value": 129, "unit": "mg/g"},
      {"measurement": "Solubility", "setting": "[1]; in Maisine 35-1 (Glyceryl linoleate)", "value": 129, "unit": "mg/g"},
      {"measurement": "Solubility", "setting": "[1]; in Miglyol 812N (caprylic/capric triglyceride)", "value": 65, "unit": "mg/g"},
      {"measurement": "Solubility", "setting": "[1]; in PEG 400 (polyethylene glycol 400)", "value": 121, "unit": "mg/g"},
      {"measurement": "Solubility", "setting": "[1]; in PS 80 VG (POE monooleate)", "value": 144, "unit": "mg/g"},
      {"measurement": "Solubility", "setting": "[1]; in PS 80 VG pH 6 (POE monooleate)", "value": 135, "unit": "mg/g"},
      {"measurement": "Solubility", "setting": "[1]; in Peceol (Glyceryl monooleate)", "value": 106, "unit": "mg/g"},
      {"measurement": "Solubility", "setting": "[1]; in Phosal 50 PG (Phosphatidylcholine ≧ 50% in propylene glycol)", "value": 27, "unit": "mg/g"},
      {"measurement": "Solubility", "setting": "[1]; in Phosal 50 SA (Phosphatidylcholine 50 ± 3% in alcohol, safflower oil, glyceryl stearate, coconut oil and ascorbyl palmitate)", "value": 97, "unit": "mg/g"},
      {"measurement": "Solubility", "setting": "[1]; in Phosal 75 SA (Phosphatidylcholine 75 ± 3% in alcohol, safflower oil, glyceryl stearate, coconut oil and ascorbyl palmitate)", "value": 122, "unit": "mg/g"},
      {"measurement": "Solubility", "setting": "[1]; in Plurol diisostearic", "value": 23, "unit": "mg/g"},
      {"measurement": "Solubility", "setting": "[1]; in Plurol oleic CC497 (Polyglyceryl 6 oleate)", "value": 42, "unit": "mg/g"},
      {"measurement": "Solubility", "setting": "[1]; in Soybean oil (glycerides, linoleic acid 50-57%)", "value": 16, "unit": "mg/g"},
      {"measurement": "Solubility", "setting": "[1]; in Transcutol (Diethylene glycol monoethyl ether)", "value": 197, "unit": "mg/g"},
      {"measurement": "Solubility", "setting": "[2]; in Gelucire 44/14 (lauroyl macrogol-32 glycerides), excipient melted up to 70° C.", "value": 96, "unit": "mg/g"},
      {"measurement": "Solubility", "setting": "[2]; in Imwitor 988 (Glyceryl mono-dicaprylate), semi-solid excipient melted up to 70° C.", "value": 283, "unit": "mg/g"},
      {"measurement": "Solubility", "setting": "[2]; in Myrj 45 (POE stearate), excipient melted up to 70° C.", "value": 128, "unit": "mg/g"},
      {"measurement": "Solubility", "setting": "[2]; in PEG 4000 (polyethylene glycol 1500), excipient melted up to 70° C.", "value": ">50* mg/g"},
      {"measurement": "Solubility", "setting": "[2]; in Vitamin E TPGS (α-tocopherol PEG succinate), excipient melted up to 70° C.", "value": 73, "unit": "mg/g"}
    ]}
  ]
}
